How the values were obtained:
NTS1 [1] = details: cited from earlier work
NTS1-GW5 = NTS1-GW5 (Rattus norvegicus, UniProt P20789, A86L/E166A/F358A/G215A/L310A/V360A); experiment: Competition of [3H]NT binding by SR48692, NTS1-GW5
NTS1 [2] = details: cited from earlier work; remark: listed apart in the source

NTS1-GW5, sequence (P20789 43-396 A86L/E166A/G215A/L310A/F358A/V360A): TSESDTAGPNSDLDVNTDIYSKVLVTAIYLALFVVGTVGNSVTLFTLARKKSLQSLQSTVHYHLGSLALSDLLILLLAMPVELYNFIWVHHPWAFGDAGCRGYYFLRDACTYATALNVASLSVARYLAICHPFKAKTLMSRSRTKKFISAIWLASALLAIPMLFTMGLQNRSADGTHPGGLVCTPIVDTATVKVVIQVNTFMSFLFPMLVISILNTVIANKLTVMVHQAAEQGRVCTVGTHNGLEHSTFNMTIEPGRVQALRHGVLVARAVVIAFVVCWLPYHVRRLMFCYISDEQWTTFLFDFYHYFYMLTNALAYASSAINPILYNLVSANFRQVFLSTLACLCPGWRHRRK

Molecule: KIPYIL [neuromedin N]
- binding to NTS1 (NTS1 [1]): binds

Molecule: COc1cccc(OC)c1-c1cc(C(=O)NC2(C(=O)O)C3CC4CC(C3)CC2C4)nn1-c1ccnc2cc(Cl)ccc12 (stereo not shown) [SR48692]
- apparent affinity for SR48692 compared to wild-type (NTS1-GW5): lower

Molecule: Arg-Arg-Pro-Tyr-Ile-Leu [NT8-13]
- efficacy compared to full-length NT (NTS1 [2]): higher potency and efficacy
- potency compared to full-length NT (NTS1 [2]): higher potency

From paper PMC3482300 (Nature, 2012)
